Test results: PMC8533333, “Melatonin Analogues Potently Inhibit MAO-B and Protect PC12 Cells against Oxidative Stress” (Antioxidants, 2021)

Assays:
[1] = Neuroprotection against 6-OHDA-induced oxidative toxicity in PC12 cells (MTT); conditions: rat
Procedure: (§1) Control cells were incubated in an equivalent volume of DMSO to a final concentration of 0.3%. Neuroprotective effects of the tested compounds on the toxicity induced by 6-OHDA or rotenone in PC12 cells were evaluated as described previously with slight modifications. In brief, cells were pre-treated with the tested compounds or rasagiline at the indicated concentrations for 4 h. Next, they were exposed to 6-OHDA (50 μM) or rotenone (1 μM) for 24 h. In another set of experiments, the influence of HO-1 inhibitor, ZnPP, on the neuroprotective effects of the tested compounds against 6-OHDA-induced oxidative damage was investigated as previously reported. Briefly, the cells were pre-treated with the tested compounds for 4 h and then incubated with 0.2 µM of ZnPP for 30 min. Subsequently, 6-OHDA was added at a final concentration of 50 µM and incubated for 24 h.
After the desired treatment, cell viability was determined by MTT assay as described previously. Briefly, MTT was added to the cells at the final concentration of 0.5 mg/mL, which was followed by incubation for 3 h at 37 °C. […] The absorbance of the dissolved solution was measured at 550 nm using a microplate reader (SpectraMax M2^e, Molecular Devices, Sunnyvale, CA, USA). The cell viability was presented as the percentage of the absorbance measured in the vehicle-treated control cells.

[2] = Neuroprotection against rotenone-induced toxicity in PC12 cells (MTT); conditions: rat
Procedure: as §1
After the desired treatment, cell viability was determined by MTT assay as described previously. Briefly, MTT was added to the cells at the final concentration of 0.5 mg/mL, which was followed by incubation for 3 h at 37 °C. The supernatants were carefully removed, and then, 300 μL of DMSO was added to each well to dissolve formazan precipitate. The absorbance of the dissolved solution was measured at 550 nm using a microplate reader (SpectraMax M2^e, Molecular Devices, Sunnyvale, CA, USA). The cell viability was presented as the percentage of the absorbance measured in the vehicle-treated control cells.

Compound | viability at 24 h, 50 µM [1] | viability at 24 h, 1 μM [2]
NCCc1cc(O)c(O)cc1O [6-OHDA, 6-Hydroxydopamine] | 50.9 ± 3.1% | 
C=C(C)[C@H]1Cc2c(ccc3c2O[C@@H]2COc4cc(OC)c(OC)cc4[C@@H]2C3=O)O1 [rotenone, reference compound] |  | 64.4 ± 1.4%
